Here are results for twelve compounds from patent US20220135591A1, “HETEROCYCLIC COMPOUNDS AS INHIBITORS OF MONOACYLGLYCEROL LIPASE (MAGL)” (Hoffmann-La Roche Inc., priority 2019, published 2022).

This assay concerns the target T1, MAGL (Homo sapiens, UniProt Q99685).
T1 sequence (Q99685 1-303): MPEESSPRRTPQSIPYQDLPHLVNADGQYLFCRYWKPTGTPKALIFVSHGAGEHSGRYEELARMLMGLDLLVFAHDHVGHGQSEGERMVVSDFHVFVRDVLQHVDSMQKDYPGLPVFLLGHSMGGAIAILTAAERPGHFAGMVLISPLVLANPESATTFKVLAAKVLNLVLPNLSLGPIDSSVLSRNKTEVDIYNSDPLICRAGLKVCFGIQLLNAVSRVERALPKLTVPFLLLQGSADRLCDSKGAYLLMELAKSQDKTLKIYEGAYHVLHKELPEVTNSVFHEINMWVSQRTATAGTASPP
Kind of assay: 2-AG assay: MAGL inhibitory activity by hydrolysis of 2-arachidonoylglycerol to arachidonic acid, mass spectrometry. Type of assay: biochemical. The conditions noted are these: 2-AG assay (values marked [b]). An outline of the steps: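 Hydrolysis of 8 μM 2-arachidonoylglycerol by […] was run for 30 min at RT after a 15 min compound preincubation, in Tris/EDTA/Tween buffer. Test compounds spanned […]. The product was measured by online SPE-MS/MS (transitions 303.1→259.1 and 311.1→267.0), and activity was derived from the arachidonic acid/d8-arachidonic acid signal ratio.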
With `Cc1ccc2oc(N3CCN(C(=O)c4ccc(-n5cnc(C(C)(C)C)n5)c(C)c4)CC3)nc2n1` [Example 288, [4-(3-tert-butyl-1,2,4-triazol-1-yl)-3-methyl-phenyl]-[4-(5-methyloxazolo[4,5-b]pyridin-2-yl)piperazin-1-yl]methanone], the 50% inhibitory concentration (IC50) worked out at 175 nM.

For `Cc1ccc2oc(N3CCN(C(=O)c4ccc(-n5cnc(C(C)(C)C)n5)c(Cl)c4)CC3)nc2n1` [Example 291, [4-(3-tert-butyl-1,2,4-triazol-1-yl)-3-chloro-phenyl]-[4-(5-methyloxazolo[4,5-b]pyridin-2-yl)piperazin-1-yl]methanone], 172 nM corresponded to half-maximal inhibition (IC50).

Consider `CC(C)(C)c1ncn(-c2ccc(C(=O)N3CCN(c4nc5nc(Cl)ccc5o4)CC3)cc2Cl)n1` [Example 292, [4-(3-tert-butyl-1,2,4-triazol-1-yl)-3-chloro-phenyl]-[4-(5-chlorooxazolo[4,5-b]pyridin-2-yl)piperazin-1-yl]methanone], for which the 50% inhibitory concentration (IC50) turned out to be 75 nM.

`CC(C)(C)Cn1cnc(-c2ccc(C(=O)N3CCN(c4nc5nc(Cl)ccc5o4)CC3)cc2F)n1` [Example 293, [4-(5-chlorooxazolo[4,5-b]pyridin-2-yl)piperazin-1-yl]-[4-[1-(2,2-dimethylpropyl)-1,2,4-triazol-3-yl]-3-fluoro-phenyl]methanone]: the IC50 stood at 20 nM.

For the compound `Cc1ccc2oc(N3CCN(C(=O)c4ccc(-c5ncn(CC(C)(C)C)n5)c(F)c4)CC3)nc2n1` [Example 294, [4-[1-(2,2-dimethylpropyl)-1,2,4-triazol-3-yl]-3-fluoro-phenyl]-[4-(5-methyloxazolo[4,5-b]pyridin-2-yl)piperazin-1-yl]methanone], inhibition was half-maximal at 34 nM (IC50).

For the compound `CC1CN(c2nc3nc(Cl)ccc3o2)CCN1C(=O)c1ccc(-c2cn(CC(C)(C)C)nn2)cc1` (stereo not drawn) [Example 295, [4-(5-chlorooxazolo[4,5-b]pyridin-2-yl)-2-methyl-piperazin-1-yl]-[4-[1-(2,2-dimethylpropyl)triazol-4-yl]phenyl]methanone], the IC50 is 243 nM.

With `Cc1ccc2oc(N3CCN(C(=O)c4ccc(OCC5(C(F)(F)F)CC5)nc4Cl)CC3)nc2n1` [Example 296, [2-chloro-6-[[1-(trifluoromethyl)cyclopropyl]methoxy]-3-pyridyl]-[4-(5-methyloxazolo[4,5-b]pyridin-2-yl)piperazin-1-yl]methanone], it took 2620 nM to reach half-maximal inhibition (IC50). Against the preceding compound, the IC50 is about 11-fold higher.

On to `CC(C)(C)c1nc(-c2ccc(C(=O)N3C4CCC3CN(c3nc5nc(Cl)ccc5o3)C4)cc2)no1` [Example 297, [4-(5-tert-butyl-1,2,4-oxadiazol-3-yl)phenyl]-[3-(5-chlorooxazolo[4,5-b]pyridin-2-yl)-3,8-diazabicyclo[3.2.1]octan-8-yl]methanone], for which 100 nM corresponded to half-maximal inhibition (IC50).

`CC(C)(F)Cc1nnc(-c2ccc(C(=O)N3CCN(c4nc5nc(Cl)ccc5o4)CC3)cc2F)o1` [Example 298, [4-(5-chlorooxazolo[4,5-b]pyridin-2-yl)piperazin-1-yl]-[3-fluoro-4-[5-(2-fluoro-2-methyl-propyl)-1,3,4-oxadiazol-2-yl]phenyl]methanone] gave an IC50 of 95 nM.

`Cc1ccc2oc(N3CCN(C(=O)c4cc(F)c(-c5nnn(CC(C)(C)C)n5)c(F)c4)CC3)nc2n1` [Example 299, [4-[2-(2,2-dimethylpropyl)tetrazol-5-yl]-3,5-difluoro-phenyl]-[4-(5-methyloxazolo[4,5-b]pyridin-2-yl)piperazin-1-yl]methanone]: the IC50 is 31 nM.

Compound `CC(C)(C)Cn1nnc(-c2c(F)cc(C(=O)N3CCN(c4nc5nc(Cl)ccc5o4)CC3)cc2F)n1` [Example 300, [4-(5-chlorooxazolo[4,5-b]pyridin-2-yl)piperazin-1-yl]-[4-[2-(2,2-dimethylpropyl)tetrazol-5-yl]-3,5-difluoro-phenyl]methanone] came in with an IC50 of 10 nM.

Consider `Cc1ccc2oc(N3CCN(C(=O)c4ccc(-c5nnn(CC(C)(C)C)n5)c(C)c4)CC3)nc2n1` [Example 301, [4-[2-(2,2-dimethylpropyl)tetrazol-5-yl]-3-methyl-phenyl]-[4-(5-methyloxazolo[4,5-b]pyridin-2-yl)piperazin-1-yl]methanone], for which the IC50 is 3 nM.

Usually IC50 stands for the midpoint of a concentration-inhibition curve. Read a high IC50 as a need for much substance.
